# Experimental data from patent US11480877B2, “Resist composition, method for forming resist pattern, and polyphenol compound used therein” (Mitsubishi Gas Chemical Company, Inc., priority 2015, dated 2022).
# Assay: Safe solvent solubility test of compound
# Assay type: physicochemical
# Details: for Solubility in CHN (amount of dissolution) / Solubility in PGME (amount of dissolution) / Solubility in PGME A (amount of dissolution): 23° C., ultrasonic waves 30 minutes, visual observation; for Solubility in PGME A (amount of dissolution) / Solubility in safe solvents (in words): PGMEA; for Solubility in safe solvents (in words): safe solvents PGME; for Solubility in CHN (amount of dissolution) / Solubility in safe solvents (in words): CHN
# Protocol: The solubilities of the compound in PGME, PGMEA, and CHN were evaluated according to the following criteria utilizing the amount of dissolution in each solvent. The amount of dissolution was measured at 23° C. by precisely weighing the compound into a test tube, adding a subject solvent so as to attain a predetermined concentration, applying ultrasonic waves for 30 minutes in an ultrasonic cleaner, and visually observing the subsequent state of the fluid.
# A: 5.0% by mass≤Amount of dissolution
# B: 2.0% by mass≤Amount of dissolution<5.0% by mass
# C: Amount of dissolution<2.0% by mass • (2) Storage Stability and Thin Film Formability of Resist Composition
Solubility in CHN (amount of dissolution),Solubility in PGME (amount of dissolution),Solubility in PGME A (amount of dissolution),Solubility in safe solvents (in words),SMILES
A (5.0% by mass ≤ Amount of dissolution),A (5.0% by mass ≤ Amount of dissolution),A (5.0% by mass ≤ Amount of dissolution),high solubility,COc1cc(C2c3c(ccc4ccc(O)cc34)Oc3ccc4ccc(O)cc4c32)cc(I)c1O [Synthesis Example 6]
A (5.0% by mass ≤ Amount of dissolution),A (5.0% by mass ≤ Amount of dissolution),C (Amount of dissolution <2.0% by mass),high solubility,Oc1ccc2ccc3c(c2c1)C(c1ccc(I)cc1)c1c(ccc2ccc(O)cc12)O3 [Synthesis Example 5]

# Continued, molecule first:
SMILES,Solubility in CHN (amount of dissolution),Solubility in PGME (amount of dissolution),Solubility in PGME A (amount of dissolution),Solubility in safe solvents (in words)
"Oc1ccc2c3c(ccc2c1)Oc1ccc2cc(O)ccc2c1C3c1ccc(-c2ccccc2)cc1 [Production Example 1, reference compound]",A (5.0% by mass ≤ Amount of dissolution),A (5.0% by mass ≤ Amount of dissolution),A (5.0% by mass ≤ Amount of dissolution),–
COc1cc(C2c3c(ccc4cc(O)ccc34)Oc3ccc4cc(O)ccc4c32)cc(I)c1O [Synthesis Example 3],A (5.0% by mass ≤ Amount of dissolution),A (5.0% by mass ≤ Amount of dissolution),A (5.0% by mass ≤ Amount of dissolution),high solubility
Oc1ccc2c3c(ccc2c1)Oc1ccc2cc(O)ccc2c1C3c1ccc(I)cc1 [Synthesis Example 2],A (5.0% by mass ≤ Amount of dissolution),A (5.0% by mass ≤ Amount of dissolution),A (5.0% by mass ≤ Amount of dissolution),high solubility
Oc1ccc2ccc3c(c2c1)C(c1cccc(I)c1)c1c(ccc2ccc(O)cc12)O3 [Synthesis Example 4],B (2.0% by mass ≤ Amount of dissolution <5.0% by mass),A (5.0% by mass ≤ Amount of dissolution),A (5.0% by mass ≤ Amount of dissolution),high solubility
Oc1ccc2c3c(ccc2c1)Oc1ccc2cc(O)ccc2c1C3c1cccc(I)c1 [Synthesis Example 1],A (5.0% by mass ≤ Amount of dissolution),A (5.0% by mass ≤ Amount of dissolution),A (5.0% by mass ≤ Amount of dissolution),high solubility
